Data reported in ChEMBL document CHEMBL3108708, “Discovery of Tertiary Amine and Indole Derivatives as Potent RORγt Inverse Agonists” (ACS Med Chem Lett, 2014).

Key:
[1] = target: T1, Nuclear receptor ROR-gamma (Mus musculus, UniProt P51450); experiment: Inverse agonist activity at RORgammat in mouse Th17 cells assessed as effect on cell differentiation measured as IL-17 level after 3 days by ELISA; format: cell-based
T1 sequence (P51450 whole entry): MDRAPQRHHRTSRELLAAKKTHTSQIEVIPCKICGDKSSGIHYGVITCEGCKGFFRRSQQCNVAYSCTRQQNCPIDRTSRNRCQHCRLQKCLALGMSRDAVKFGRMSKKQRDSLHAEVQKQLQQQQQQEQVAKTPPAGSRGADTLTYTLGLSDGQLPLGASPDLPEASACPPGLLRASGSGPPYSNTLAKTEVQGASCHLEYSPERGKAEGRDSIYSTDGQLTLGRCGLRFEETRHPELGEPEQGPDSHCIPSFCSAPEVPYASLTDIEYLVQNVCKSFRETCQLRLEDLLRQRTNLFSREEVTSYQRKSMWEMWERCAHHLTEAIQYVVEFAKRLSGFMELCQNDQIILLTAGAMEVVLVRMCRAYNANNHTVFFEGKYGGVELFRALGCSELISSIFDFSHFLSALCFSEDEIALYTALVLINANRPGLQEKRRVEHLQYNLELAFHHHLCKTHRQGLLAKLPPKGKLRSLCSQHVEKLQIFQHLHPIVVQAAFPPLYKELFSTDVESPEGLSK

[2] = target: T2, Nuclear receptor ROR-gamma (Homo sapiens, UniProt P51449)
T2 sequence (P51449 whole entry): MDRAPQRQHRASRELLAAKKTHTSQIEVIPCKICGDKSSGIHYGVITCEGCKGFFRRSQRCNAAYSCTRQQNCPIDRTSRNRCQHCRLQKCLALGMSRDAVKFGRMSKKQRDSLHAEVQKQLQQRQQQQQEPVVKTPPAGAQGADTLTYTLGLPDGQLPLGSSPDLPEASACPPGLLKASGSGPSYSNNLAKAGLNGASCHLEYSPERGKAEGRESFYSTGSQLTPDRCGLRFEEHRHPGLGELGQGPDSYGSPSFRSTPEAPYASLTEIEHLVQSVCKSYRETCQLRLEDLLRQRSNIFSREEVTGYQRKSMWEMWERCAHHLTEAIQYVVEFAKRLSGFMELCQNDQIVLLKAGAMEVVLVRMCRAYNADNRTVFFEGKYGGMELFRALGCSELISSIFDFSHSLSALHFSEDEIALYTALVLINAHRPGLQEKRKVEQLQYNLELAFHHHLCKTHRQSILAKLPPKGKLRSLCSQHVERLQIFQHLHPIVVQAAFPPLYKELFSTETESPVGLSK
Description: Inverse agonist activity at biotinylated human RORgammat expressed in Escherichia coli BL21 assessed as effect on recruitment of SRC1/2 after 1 hr by dual-FRET assay

[3] = target: T2, Nuclear receptor ROR-gamma; remark: listed apart in the source
Description: Inverse agonist activity at biotinylated human RORgammat LBD expressed in Escherichia coli BL21 assessed as inhibition of SRC1 recruitment after 1 hr by FRET assay in presence of N-(2-chloro-6-fluorobenzyl)-N-((2'-methoxy-[1,1'-biphenyl]-4-yl)methyl)benzenesulfonamide

[4] = target: T3, Nuclear receptor ROR-gamma (Homo sapiens) (UniProt P51449)
T3 sequence (whole entry): T2 sequence (P51449 whole entry)
Description: Binding affinity to human RORgammat expressed in Escherichia coli BL21 assessed as melting temperature by thermal shift assay

## CCS(=O)(=O)c1ccc(CC(=O)Nc2ccc3c(ccn3CCc3ccc(C(F)(F)F)cc3)c2)cc1
[1]
  IC50: 0.031 µM

## CCCN(Cc1ccc(NC(=O)Cc2ccc(S(=O)(=O)CC)cc2)cc1)Cc1ccc(C(F)(F)F)cc1
[1]
  IC50: 0.32 µM

## CCCN(CCc1ccc(C(F)(F)F)cc1)c1ccc(NC(=O)Cc2ccc(S(=O)(=O)CC)cc2)cc1
[1]
  IC50: 0.733 µM

## CCS(=O)(=O)c1ccc(CC(=O)Nc2ccc(CNCc3ccc(C(F)(F)F)cc3)cc2)cc1
[1]
  IC50: > 10 µM

## CCS(=O)(=O)c1ccc(CC(=O)Nc2ccc3c(ccn3CCc3ccc(C#N)cc3)c2)cc1
[1]
  IC50: 0.457 µM

## CCCN(Cc1ccc(C)cc1)Cc1ccc(NC(=O)Cc2ccc(S(=O)(=O)CC)cc2)cc1
[2]
  EC50: 0.025 µM
[3]
  IC50: > 25 µM

## CCS(=O)(=O)c1ccc(CC(=O)Nc2nc(-c3cc(Cl)ccc3Cl)cs2)cc1
[2]
  IC50: 1 µM
[3]
  IC50: 1 µM
[4]
  ΔTm: 7.1 °C

## CCS(=O)(=O)c1ccc(CC(=O)Nc2ccc3c(ccn3CCc3ccc(Cl)cc3Cl)c2)cc1
[1]
  IC50: 0.009 µM

## CCS(=O)(=O)c1ccc(CC(=O)Nc2ccc3c(ccn3CCc3ccc(Cl)c(Cl)c3)c2)cc1
[1]
  IC50: 0.04 µM

## CCS(=O)(=O)c1ccc(CC(=O)Nc2ccc(NCCc3ccc(C(F)(F)F)cc3)c(Cl)c2)cc1
[1]
  IC50: 1.02 µM

## CCS(=O)(=O)c1ccc(CC(=O)Nc2ccc3c(ccn3CCc3ccc(Cl)cc3)c2)cc1
[1]
  IC50: 0.164 µM

## CCS(=O)(=O)c1ccc(CC(=O)Nc2ccc3c(ccn3CCc3ccc(OC(C)C)cc3)c2)cc1
[1]
  IC50: 0.07 µM
